Test results: publication PMC2680146 (Chemical biology & drug design, 2008)
Entries after “also recorded” stand apart in the source; their conditions may differ.

Columns and labels:
yPFTase [1] = assay: yPFTase-catalyzed prenylation, product analysis by HPLC; type: biochemical, Saccharomyces cerevisiae; settings: FPP source pure FPP or photolysis product of 5 or 9
rPFTase = rPFTase (Rattus norvegicus, UniProt Q02293+Q04631); assay: X-ray crystallography of rPFTase:FPP:15 complex; type: binding; settings: FPP bound in presence of 15 vs PDB 1KZO
Photolysis = type: physicochemical; settings: 300-400 nm light (λmax 350 nm)
yPFTase [2] = assay: yPFTase substrate studies, continuous fluorescence assay; type: biochemical, Saccharomyces cerevisiae
[3] = λirrad 350 nm; ref [16]; cited from earlier work
PFTase = settings: literature comparison value; ref [46]; cited from earlier work

rPFTase, sequence (Q02293 whole entry, one chain of several): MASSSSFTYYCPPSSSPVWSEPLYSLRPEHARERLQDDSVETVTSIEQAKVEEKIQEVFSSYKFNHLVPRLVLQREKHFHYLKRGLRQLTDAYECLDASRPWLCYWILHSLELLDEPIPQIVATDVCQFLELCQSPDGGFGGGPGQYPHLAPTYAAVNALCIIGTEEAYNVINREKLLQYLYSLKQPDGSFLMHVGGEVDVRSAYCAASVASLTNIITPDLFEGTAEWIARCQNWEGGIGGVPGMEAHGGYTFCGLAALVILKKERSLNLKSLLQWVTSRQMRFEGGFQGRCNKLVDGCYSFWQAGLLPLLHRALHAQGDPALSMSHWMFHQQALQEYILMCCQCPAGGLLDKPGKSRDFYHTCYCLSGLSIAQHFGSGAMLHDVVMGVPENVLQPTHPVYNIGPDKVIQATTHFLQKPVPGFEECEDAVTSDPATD

CC(C)=CCC/C(C)=C/CC/C(C)=C/CO[P@@](=O)(O)OP(=O)(O)O (stereo in doubt) [FPP, farnesyl diphosphate, reference compound]
prenylated product formed (yPFTase [1]): same prenylated product
rms deviation over all FPP atoms (rPFTase): 0.546 Å

CC(C)=CCC/C(C)=C/CC/C(C)=C/COP(=O)(O)OP(=O)(O)OCc1ccccc1[N+](=O)[O-] [Compound 5, β-(2-nitrobenzyl)farnesyl diphosphate]
Qu1 (single-photon uncaging efficiency) (Photolysis; 25 mM NH4HCO3): 0.70
photolysis product (Photolysis; RP-HPLC): release of farnesyl diphosphate; also recorded: efficiently release FPP upon irradiation
interference of photolysis byproducts with catalysis (yPFTase [2]; after irradiation): do not interfere with catalysis in any way
substrate behaviour (yPFTase [2]; prior to uncaging): better substrate than compound 9; also recorded: poor substrates for PFTase
prenylated product formed (yPFTase [1]): same prenylated product

COc1cc(C(C)OP(=O)(O)OP(=O)(O)OC/C=C(\C)CC/C=C(\C)CCC=C(C)C)c([N+](=O)[O-])cc1OC (stereo not drawn) [Compound 9, β-1-(4,5-dimethoxy-nitrophenyl)ethyl farnesyl diphosphate]
Qu1 (single-photon uncaging efficiency) (Photolysis; 25 mM NH4HCO3): 0.08
uncaging rate constant k (Photolysis; 25 mM NH4HCO3, RP-HPLC, first-order kinetics): 0.12 min⁻¹
photolysis product (Photolysis; RP-HPLC): release of farnesyl diphosphate; also recorded: efficiently release FPP upon irradiation
rate of enzymatic prenylation relative to FPP (yPFTase [2]; prior to uncaging): 7.6%
substrate behaviour (yPFTase [2]; prior to uncaging): poorer substrate prior to uncaging; also recorded: poor substrates for PFTase
prenylated product formed (yPFTase [1]): same prenylated product

COc1cc(C(C)OP(=O)(O)OP(=O)(O)OP(=O)(O)OC[C@H]2O[C@@H](n3cnc4c(N)ncnc43)[C@H](O)[C@@H]2O)c([N+](=O)[O-])cc1OC (stereo partly shown) [DMNPE-ATP]
Qu1 (quantum efficiency) [3]: 0.07 mol·ein^-1
Uncaging Rate [3]: 18.0 s⁻¹

CVIM
IC50 (PFTase): 165 nM
